Results published in the supplement of paper PMC10307832.

How the values were obtained:
Experiment in all cases: relative viability (nuclei count vs DMSO), 5 days (fraction); higher = more cells survive
[1] = compound: C1COCCN1C2=NC(=NC3=C2OC4=C3C=CC=N4)C5=CC(=CC=C5)NC(=O)C6=CN=C(C=C6)N + CC(=O)Nc1cccc(-n2c(=O)n(C3CC3)c(=O)c3c(Nc4ccc(I)cc4F)n(C)c(=O)c(C)c32)c1 [Trametinib] (partner 0.02 µM)
Outline: (§1)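 Relative viability is defined as nuclei in treated wells over nuclei in vehicle wells. Duplicate plates were run and medians reported. Lung cancer cell lines in 1536-well plates were dosed by pin tool one day after seeding, with one drug or with a fixed anchor-drug dose plus five library-drug doses (not always all listed) in √10 steps, and nuclei were counted after 5 days.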

[2] = compound: C1COCCN1C2=NC(=NC3=C2OC4=C3C=CC=N4)C5=CC(=CC=C5)NC(=O)C6=CN=C(C=C6)N + Nc1nc2[nH]cc(CCc3ccc(C(=O)N[C@@H](CCC(=O)O)C(=O)O)cc3)c2c(=O)[nH]1 [Pemetrexed] (partner 0.2 µM)
Outline: as §1

SGI-1776 + Luminespib = compound: CN1CCC(CNc2ccc3ncc(-c4cccc(OC(F)(F)F)c4)n3n2)CC1 [SGI-1776] + CCNC(=O)c1noc(-c2cc(C(C)C)c(O)cc2O)c1-c1ccc(CN2CCOCC2)cc1 [Luminespib] (partner 0.01 µM)
Outline: as §1

SGI-1776 + AZD7762 = compound: CN1CCC(CNc2ccc3ncc(-c4cccc(OC(F)(F)F)c4)n3n2)CC1 [SGI-1776] + NC(=O)Nc1cc(-c2cccc(F)c2)sc1C(=O)N[C@H]1CCCNC1 [AZD7762] (partner 0.2 µM)
Outline: as §1

Cell Line	relative viability ([1]; first compound 0.02 µM)	relative viability ([1]; first compound 0.06325 µM)	relative viability ([1]; first compound 0.2 µM)	relative viability ([1]; first compound 0.6325 µM)	relative viability ([1]; first compound 2 µM)	relative viability ([2]; first compound 0.02 µM)	relative viability ([2]; first compound 0.06325 µM)	relative viability ([2]; first compound 0.2 µM)	relative viability ([2]; first compound 0.6325 µM)	relative viability ([2]; first compound 2 µM)	relative viability (SGI-1776 + Luminespib; first compound 0.08 µM)	relative viability (SGI-1776 + Luminespib; first compound 0.8 µM)	relative viability (SGI-1776 + Luminespib; first compound 2.53 µM)	relative viability (SGI-1776 + Luminespib; first compound 8 µM)	relative viability (SGI-1776 + AZD7762; first compound 0.08 µM)	relative viability (SGI-1776 + AZD7762; first compound 0.8 µM)	relative viability (SGI-1776 + AZD7762; first compound 2.53 µM)	relative viability (SGI-1776 + AZD7762; first compound 8 µM)
NCI-H2347	0.302	0.264	0.289	0.314	0.258	0.416	0.528	0.433	0.417	0.427	0.344	0.558	0.324	0.539	0.825	0.912	0.81	0.692
NCI-H1666	1.04	0.865	0.753	0.751	0.694	0.861	0.812	0.699	0.749	0.546	1.03	0.995	0.972	0.877	0.945	0.873	0.862	0.834
NCI-H1993	0.521	0.583	0.571	0.421	0.526	0.619	0.666	0.607	0.583	0.475	0.882	0.964	0.676	0.652	0.839	0.941	0.889	0.482
HCC-44	1.12	1.31	1.04	1.09	1	0.616	0.639	0.676	0.682	0.653	1.06	0.953	1.01	0.693	1.07	0.969	1	0.95
LU99A	0.592	0.576	0.547	0.452	0.389	0.204	0.183	0.223	0.184	0.178	0.245	0.247	0.253	0.254	0.38	0.384	0.339	0.294
NCI-H460	0.166	0.263	0.142	0.133	0.0197	0.0585	0.0645	0.0766	0.0835	0.0565	0.0293	0.0297	0.0268	0.019	0.717	0.669	0.572	0.707
NCI-H650	0.923	1.05	0.951	0.888	0.796	0.95	0.918	0.945	0.835	0.782	0.863	0.734	0.9	0.858	1.21	0.941	0.994	1.17
NCI-H1975	0.315	0.362	0.307	0.348	0.31	0.327	0.296	0.293	0.292	0.23	0.302	0.137	0.208	0.106	0.749	0.745	0.631	0.43
NCI-H1355	0.452	0.427	0.395	0.367	0.372	1.04	1.05	1.01	0.944	0.924	0.68	0.625	0.607	0.551	0.782	0.772	0.657	0.642
NCI-H1755	0.741	0.827	0.741	0.754	0.617	0.447	0.431	0.465	0.388	0.362	0.482	0.515	0.408	0.326	0.459	0.575	0.463	0.378
LK-2	0.787	0.798	0.637	0.583	0.426	0.291	0.238	0.284	0.208	0.24	0.17	0.188	0.257	0.159	0.423	0.54	0.324	0.236
NCI-H3122	0.275	0.249	0.233	0.229	0.175	0.207	0.199	0.183	0.186	0.183	0.089	0.096	0.0857	0.0863	0.941	0.935	0.938	1
HOP-62	0.403	0.415	0.323	0.359	0.227	0.298	0.3	0.301	0.29	0.162	0.835	0.93	0.941	0.89	0.84	0.574	0.613	0.646
NCI-H358	0.132	0.138	0.122	0.127	0.244	0.176	0.182	0.137	0.222	0.135	0.729	0.506	0.432	0.315	0.465	0.467	0.456	0.348
BEN	1	0.947	1.11	0.888	0.939	0.737	0.795	0.584	0.693	0.665	0.434	0.39	1.1	0.475	0.829	0.735	0.673	0.524
ChaGo-K-1	0.906	0.987	0.941	0.804	0.602	0.271	0.256	0.251	0.237	0.237	0.586	0.51	0.706	0.556	0.892	0.875	0.912	0.859
NCI-H1792	0.451	0.477	0.368	0.374	0.231	1.02	0.924	0.586	0.638	0.276	0.371	0.558	0.431	0.264	0.587	0.786	0.768	0.438

Cell Line	relative viability ([1]; first compound 0.02 µM)	relative viability ([1]; first compound 0.06325 µM)	relative viability ([1]; first compound 0.2 µM)	relative viability ([1]; first compound 0.6325 µM)	relative viability ([1]; first compound 2 µM)	relative viability ([2]; first compound 0.02 µM)	relative viability ([2]; first compound 0.06325 µM)	relative viability ([2]; first compound 0.2 µM)	relative viability ([2]; first compound 0.6325 µM)	relative viability ([2]; first compound 2 µM)	relative viability (SGI-1776 + Luminespib; first compound 0.08 µM)	relative viability (SGI-1776 + Luminespib; first compound 0.8 µM)	relative viability (SGI-1776 + Luminespib; first compound 2.53 µM)	relative viability (SGI-1776 + Luminespib; first compound 8 µM)	relative viability (SGI-1776 + AZD7762; first compound 0.08 µM)	relative viability (SGI-1776 + AZD7762; first compound 0.8 µM)	relative viability (SGI-1776 + AZD7762; first compound 2.53 µM)	relative viability (SGI-1776 + AZD7762; first compound 8 µM)
NCI-H2085	0.586	0.582	0.359	0.549	0.359	0.795	0.872	0.837	0.825	0.586	0.481	0.44	0.513	0.333	1.08	1.06	0.978	0.956
LCLC-103H	0.66	0.693	0.693	0.62	0.479	0.466	0.435	0.444	0.465	0.419	0.965	0.88	0.948	0.729	0.9	0.776	0.675	0.729
201T	0.697	0.713	0.705	0.686	0.563	0.285	0.301	0.307	0.38	0.34	1.04	1.09	1.05	1.03	0.581	0.604	0.644	0.657
NCI-H1395	0.962	0.956	0.898	1.02	0.875	0.941	0.87	0.735	0.643	0.692	0.768	0.772	0.573	0.414	0.424	0.432	0.393	0.402
NCI-H23	0.337	0.322	0.359	0.409	0.197	0.836	0.721	0.529	0.493	0.344	0.217	0.221	0.238	0.192	0.252	0.278	0.281	0.235
LXF-289	0.676	0.769	0.671	0.67	0.462	0.945	1	0.873	0.923	0.647	0.688	0.654	0.665	0.598	1.06	1.13	1.16	1.09
EKVX	0.322	0.334	0.298	0.248	0.244	0.436	0.396	0.486	0.382	0.323	0.868	0.937	0.875	0.863	0.699	0.713	0.638	0.646
LC-2-ad	0.959	0.983	0.962	0.899	0.654	0.263	0.292	0.289	0.253	0.262	0.983	1.09	1.06	0.769	0.886	0.901	0.771	0.691
NCI-H596	0.772	0.87	0.735	0.724	0.593	0.569	0.488	0.523	0.467	0.393	0.975	0.934	0.798	0.941	1.17	1.15	0.984	0.897
NCI-H1734	0.657	0.816	0.67	0.635	0.512	0.393	0.427	0.36	0.351	0.33	0.193	0.201	0.19	0.163	0.616	0.687	0.654	0.568
LOU-NH91	0.78	0.816	0.828	0.782	0.716	0.353	0.363	0.349	0.337	0.456	0.366	0.345	0.367	0.305	0.797	0.793	0.7	0.593
NCI-H2170	0.936	0.987	0.84	0.919	0.399	0.263	0.274	0.259	0.258	0.247	0.723	0.669	0.668	0.419	0.839	0.966	0.874	0.828
NCI-H1793	0.55	0.371	0.366	0.46	0.355	0.818	0.86	0.626	0.621	0.632	0.217	0.163	0.286	0.161	0.558	0.408	0.32	0.252
NCI-H322M	0.449	0.519	0.521	0.412	0.475	0.685	0.588	0.565	0.628	0.621	0.999	0.901	0.881	0.635	0.631	0.568	0.524	0.646
PC-3 [JPC-3]	0.65	0.696		0.843	0.659	1.21	1.09		1.08	1.17	0.739	0.573	0.741	0.628	0.921	0.872	0.685	0.609
EPLC-272H	0.278		0.235	0.297	0.281	0.301	0.318	0.272	0.298	0.319	0.402	0.536	0.501	0.2	0.188	0.224	0.364	0.252
A-427	0.718	0.732	0.682	0.684	0.563	1	0.985	0.944	0.914	0.739	0.915	0.856	0.755	0.869	0.685	0.681	0.686	0.627
